In US20070128217A1 (priority 2003, published 2007):

Tests used:
[1] = tested on: antibodies in sera from SARS patients (sera 1a, 1b, 2, 6, 37, 62, London, SARS-yellow, SARS-green); type: binding, human
[2] = tested on: rabbit serum obtained by immunizing a rabbit with the SARS-CoV strain Frankfurt 1; type: binding; design: Binding of a rabbit serum to linear peptides / Binding of a rabbit serum to looped peptides / Rabbit serum linear peptides / Rabbit serum looped peptides / Binding of a rabbit serum to linear peptides of protein N of SARS-CoV Urbani (Rabbit serum linear peptides) / Binding of a rabbit serum to looped/cyclic peptides of protein N of SARS-CoV Urbani (Rabbit serum looped peptides): unit not given here
[3] = tested on: control sera (pooled serum of ten healthy LUMC hospital workers; commercial negative donor pooled serum from the Dutch bloodbank); type: binding, human

Sequence	Binding of serum 1a to linear peptides of protein E of SARS-CoV Urbani [1]	Binding of serum 1a to looped/cyclic peptides of protein E of SARS-CoV Urbani [1]	Binding of serum 1b to linear peptides of protein E of SARS-CoV Urbani [1]	Binding of serum 1b to looped/cyclic peptides of protein E of SARS-CoV Urbani [1]	Binding of serum 2 to linear peptides of protein E of SARS-CoV Urbani [1]	Binding of serum 2 to looped/cyclic peptides of protein E of SARS-CoV Urbani [1]	Binding of serum 6 to linear peptides of protein E of SARS-CoV Urbani [1]	Binding of serum 6 to looped/cyclic peptides of protein E of SARS-CoV Urbani [1]	Binding of serum 37 to linear peptides of protein E of SARS-CoV Urbani [1]	Binding of serum 37 to looped/cyclic peptides of protein E of SARS-CoV Urbani [1]	Binding of serum 62 to linear peptides of protein E of SARS-CoV Urbani [1]	Binding of serum 62 to looped/cyclic peptides of protein E of SARS-CoV Urbani [1]	Binding of serum London to linear peptides of protein E of SARS-CoV Urbani [1]	Binding of serum London to looped/cyclic peptides of protein E of SARS-CoV Urbani [1]	Binding of serum SARS-green to linear peptides of protein E of SARS-CoV Urbani [1]	Binding of serum SARS-green to looped/cyclic peptides of protein E of SARS-CoV Urbani [1]	Binding of serum SARS-yellow to linear peptides of protein E of SARS-CoV Urbani [1]	Binding of serum SARS-yellow to looped/cyclic peptides of protein E of SARS-CoV Urbani [1]	Binding of a rabbit serum to linear peptides [2]	Binding of a rabbit serum to looped peptides [2]	also measured
ILTALRLCAYCCNIV	0.8	0.9	0.7	0.6	0.4	1.0	0.8	0.7	0.7	0.7	0.8	0.8	0.5	0.6	0.5	0.6	0.2	0.6	0.6	0.6	Binding of Control Serum Blood-Bank to Looped peptides [3]: 0.8; Binding of Control serum Blood-bank to linear peptides [3]: 0.8; Binding of Control serum LUMC to linear peptides [3]: 0.4; Binding of Control serum LUMC to looped peptides [3]: 0.8
FVSEETGTLIVNSVL	0.8	0.6	0.6	0.6	0.5	0.4	0.4	0.5	0.4	0.6	0.5	0.8	0.8	0.5	0.6	0.6	0.4	0.8	0.3	0.1	Binding of Control Serum Blood-Bank to Looped peptides [3]: 0.8; Binding of Control serum Blood-bank to linear peptides [3]: 0.7; Binding of Control serum LUMC to linear peptides [3]: 1.1; Binding of Control serum LUMC to looped peptides [3]: 0.7
